According to US5084464A, “Conjugated γ-hydroxybutenolide compounds and antiulcer agents containing the same as an effective ingredient” (Kuraray Company Ltd., priority 1989, dated 1992):

What was measured:
[1] = test system: HCl-ethanol-induced ulcers generated at the mucosa of the stomach; assay: Antiulcer Activity (HCl-Ethanol Ulcer); assay type: in vivo; conditions: oral, one hour before HCl-ethanol, rats
Procedure: Antiulcer Activity (HCl-Ethanol Ulcer)
1.5 ml of a 60% aqueous ethanol solution containing 150 mM hydrochloric acid was orally administered to rats. One hour thereafter the rats were sacrificed and the length (mm) of HCl-ethanol-induced ulcers generated at the mucosa of the stomach were measured. Sum of the length of ulcer per animal is defined as ulcer coefficient. Specimens each was orally administered one hour before the HCl-ethanol administration. Inhibition rate was calculated as the ratio of the difference of ulcer coefficients of the control group and specimen-administered group to the ulcer coefficient of the control group.

[2] = Acute Toxicity (oral administration); conditions: mouse, in vivo
Procedure: Acute toxicity tests through oral administration were carried out using male ICR-strain mice (5 weeks old).

[3] = Rattus norvegicus, 1 h, read-out: Inhibition Rate

CN(C)c1ccc(/C=C/C2=CC(=O)OC2O)cc1 (stereo not shown) [(2)]
inhibition in vivo at 2.5 mg/kg [1, 3]: 37.5%

O=C1C=C(/C=C/c2cccc(C(=O)c3ccccc3)c2)C(O)O1 (stereo not shown) [(3)]
inhibition in vivo at 5 mg/kg [1, 3]: 69.7%

O=C1C=C(/C=C/c2cccc(Cc3cccnc3)c2)C(O)O1 (stereo not shown) [(4)]
inhibition in vivo at 5 mg/kg [1, 3]: 42%

O=C1C=C(/C=C/c2cccc3ccccc23)C(O)O1 (stereo not shown) [(5)]
inhibition in vivo at 2.5 mg/kg [1, 3]: 94%

COc1ccc2cc(/C=C/C3=CC(=O)OC3O)ccc2c1 (stereo not shown) [(6)]
inhibition in vivo at 5 mg/kg [1, 3]: 61.3%

O=C1C=C(/C=C/c2ccco2)C(O)O1 (stereo not shown) [(7)]
inhibition in vivo at 2.5 mg/kg [1, 3]: 96%

O=C1C=C(/C=C/c2cccs2)C(O)O1 (stereo not shown) [(8)]
inhibition in vivo at 2.5 mg/kg [1, 3]: 95.5%

O=C1C=C(/C=C/C=C/c2ccccc2)C(O)O1 (stereo not shown) [(9)]
inhibition in vivo at 5 mg/kg [1, 3]: 98.6%

O=C1C=C(/C=C/C=C/C=C/c2ccccc2)C(O)O1 (stereo not shown) [(10)]
inhibition in vivo at 5 mg/kg [1, 3]: 61.8%

CC(C)=C/C=C/C1=CC(=O)OC1O (stereo not shown) [Compound (1), 5-hydroxy-4-[4-methyl-1,3-pentadienyl]-2(5H)-furanone]
inhibition in vivo at 5 mg/kg [1, 3]: 90.6% | LD50 [2]: ≥ 2000 mg/kg

CC(=O)c1ccc2c(c1)C(=O)C1(CC1)O2 [Spizofurone, reference compound]
Inhibition Rate ([1]; 100 mg/kg): 86.6%

CC(=O)CCC=C(C)CCC=C(C)CCC=C(C)CCC=C(C)C [Teprenone, reference compound]
inhibition in vivo at 25 mg/kg ([1]; Rattus norvegicus, 1 h, 25 mg/kg, read-out: Inhibition Rate): 48.9%
